Molecular target: human A2A receptor (Homo sapiens (Human), UniProt P29274)
Test: competition binding assay using Scintillation Proximity technology
Settings: membranes from CHO-K1 cells expressing the human A2a receptor; 2.0 nM tritiated compound; Cheng-Prusoff
Outline: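 Membranes (1.0 μg) from CHO-K1 cells expressing human A2A were treated with adenosine deaminase, then incubated 1 h at room temperature with compound (3000–0.15 nM) and 2.0 nM tritiated SCH-type ligand on WGA SPA beads in PBS plus 10 mM MgCl2. Nonspecific binding was defined with 1 μM CGS 15943. Ki was derived from EC50 via Cheng-Prusoff.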

Sequence of human A2A receptor (P29274 whole entry): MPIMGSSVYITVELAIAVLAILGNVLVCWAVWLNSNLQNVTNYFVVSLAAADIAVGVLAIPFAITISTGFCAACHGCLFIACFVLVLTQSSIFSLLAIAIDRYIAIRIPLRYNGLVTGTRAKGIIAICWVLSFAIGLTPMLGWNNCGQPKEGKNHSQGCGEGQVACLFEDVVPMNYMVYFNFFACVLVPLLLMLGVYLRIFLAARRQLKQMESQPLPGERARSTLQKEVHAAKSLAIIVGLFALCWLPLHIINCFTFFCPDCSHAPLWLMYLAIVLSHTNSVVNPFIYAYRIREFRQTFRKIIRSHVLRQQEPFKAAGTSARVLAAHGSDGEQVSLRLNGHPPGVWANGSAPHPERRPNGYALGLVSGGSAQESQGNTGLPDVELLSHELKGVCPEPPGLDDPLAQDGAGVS

| SMILES | Ki |
| --- | --- |
| Nc1nc2c3c(ccc2c2nc(CCN4CC5CNC[C@H]5C4)nn12)OC(F)(F)O3 (stereo partly drawn) [Example 52, 2,2-difluoro-8-{2-[(3aS)-hexahydropyrrolo[3,4-c]pyrrol-2(1H)-yl]ethyl}[1,3]dioxolo [4,5-h][1,2,4]triazolo[1,5-c]quinazolin-5-amine] | 40 nM |
| Nc1nc2c3c(ccc2c2nc(CCN4CCC5(CCNCC5)C4)nn12)OC(F)(F)O3 [Example 53, 8-[2-(2,8-diazaspiro[4.5]dec-2-yl)ethyl]-2,2-difluoro[1,3] dioxolo[4,5-h][1,2,4]triazolo [1,5-c]quinazolin-5-amine] | 39 nM |
| Nc1nc2c3c(ccc2c2nc(CCN4CCC5(CCNCC5)CC4)nn12)OC(F)(F)O3 [Example 54, 8-[2-(3,9-diazaspiro[5.5]undec-3-yl)ethyl]-2,2-difluoro[1,3] dioxolo[4,5-h][1,2,4]triazolo [1,5-c]quinazolin-5-amine] | 320 nM |
| Nc1nc2c3c(ccc2c2nc(CCN4CCCC45CCNCC5)nn12)OC(F)(F)O3 [Example 55, 8-[2-(1,8-diazaspiro[4.5]dec-1-yl)ethyl]-2,2-difluoro[1,3] dioxolo[4,5-h][1,2,4]triazolo [1,5-c]quinazolin-5-amine] | 22 nM |
| Nc1nc2c3c(ccc2c2nc(CCN4CCCC5(CCNCC5)C4)nn12)OC(F)(F)O3 [Example 56, 8-[2-(2,9-diazaspiro[5.5]undec-2-yl)ethyl]-2,2-difluoro[1,3] dioxolo[4,5-h][1,2,4]triazolo [1,5-c]quinazolin-5-amine] | 27 nM |
| Nc1nc2c3c(ccc2c2nc(CCNC4CC5(CNC5)C4)nn12)OC(F)(F)O3 [Example 57, 8-[2-(2-azaspiro[3.3]hept-6-ylamino)ethyl]-2,2-difluoro [1,3]dioxolo[4,5-h][1,2,4] triazolo[1,5-c]quinazolin-5-amine] | 90 nM |
| Nc1nc2c3c(ccc2c2nc(CCNC4(C(F)(F)F)CCC4)nn12)OC(F)(F)O3 [Example 58, 2,2-difluoro-8-(2-{[1-(trifluoromethyl)cyclobutyl]-amino}ethyl)[1,3]dioxolo[4,5-h][1,2,4]triazolo[1,5-c]quinazolin-5-amine] | 1 nM |
| Nc1nc2c3c(ccc2c2nc(CCNCc4ccc(C(F)(F)F)cc4)nn12)OC(F)(F)O3 [Example 59, 2,2-difluoro-8-(2-{[4-(trifluoromethyl)benzyl]amino}ethyl)[1,3]dioxolo[4,5-h][1,2,4]triazolo[1,5-c]quinazolin-5-amine] | 6.2 nM |
| Cc1csc(CN(CCc2nc3c4ccc5c(c4nc(N)n3n2)OC(F)(F)O5)CC2CC2)n1 [Example 60, 8-(2-{(cyclopropylmethyl)[(4-methyl-1,3-thiazol-2-yl)methyl]amino}ethyl)-2,2-difluoro[1,3]dioxolo[4,5-h][1,2,4]triazolo[1,5-c]quinazolin-5-amine] | 0.7 nM |
| Cc1ncc(CN(CCc2nc3c4ccc5c(c4nc(N)n3n2)OC(F)(F)O5)CC2CC2)s1 [Example 61, 8-(2-{(cyclopropylmethyl)[(2-methyl-1,3-thiazol-5-yl)methyl]amino}ethyl)-2,2-difluoro[1,3]dioxolo[4,5-h][1,2,4]triazolo[1,5-c]quinazolin-5-amine] | 1.5 nM |
| Nc1nc2c3c(ccc2c2nc(CCN4CCCC(C(F)(F)F)C4)nn12)OC(F)(F)O3 (stereo not drawn) [Example 62, 2,2-difluoro-8-{2-[3-(trifluoromethyl)piperidin-1-yl]ethyl}[1,3]dioxolo[4,5-h][1,2,4]triazolo[1,5-c]quinazolin-5-amine] | 3.6 nM |
| C[C@@H]1CN(CCc2nc3c4ccc5c(c4nc(N)n3n2)OC(F)(F)O5)C[C@@H](C)O1 [Example 63, 8-{2-[(2R,6R)-2,6-dimethylmorpholin-4-yl]ethyl}-2,2-difluoro[1,3]dioxolo[4,5-h][1,2,4] triazolo[1,5-c]quinazolin-5-amine] | 36 nM |
| C[C@H](Cc1nc2c3ccc4c(c3nc(N)n2n1)OC(F)(F)O4)N1CCc2cccnc21 [Example 75, 8-[(2R)-2-(2,3-dihydro-1H-pyrrolo [2,3-b]pyridin-1-yl)propyl]-2,2-difluoro[1,3]dioxolo[4,5-h][1,2,4] triazolo[1,5-c]quinazolin-5-amine] | 4.2 nM |
| C[C@H](Cc1nc2c3ccc4c(c3nc(N)n2n1)OC(F)(F)O4)N1CCc2ccncc21 [Example 76, 8-[(2R)-2-(2,3-dihydro-1H-pyrrolo [2,3-c]pyridin-1-yl)propyl]-2,2-difluoro[1,3]dioxolo[4,5-h][1,2,4] triazolo[1,5-c]quinazolin-5-amine] | 1.8 nM |
| C[C@H](Cc1nc2c3ccc4c(c3nc(N)n2n1)OC(F)(F)O4)N1CCc2nc(C3CC3)oc2C1 [Example 81, 8-[(2R)-2-(2-cyclopropyl-6,7-dihydro [1,3]oxazolo[5,4-c]pyridin-5(4H)-yl)propyl]-2,2-difluoro[1,3] dioxolo[4,5-h][1,2,4]triazolo[1,5-c]quinazolin-5-amine] | 2.4 nM |
| Nc1nc2c3c(ccc2c2nc(CCn4cccn4)nn12)OC(F)(F)O3 [Example 99, 8-(2-(1H-pyrazol-1-yl)ethyl)-2,2-difluoro-[1,3]dioxolo[4,5-h][1,2,4]triazolo[1,5-c]quinazolin-5-amine] | 2.7 nM |
| CC(C)(Cc1nc2c3ccc4c(c3nc(N)n2n1)OC(F)(F)O4)N1CC(F)C1 [Example 101, 2,2-difluoro-8-(2-(3-fluoroazetidin-1-yl)-2-methylpropyl)-[1,3]dioxolo[4,5-h][1,2,4]triazolo[1,5-c]quinazolin-5-amine] | 31 nM |
| Nc1nc2c3c(ccc2c2nc(CN4CCN(c5ccc(F)cc5)CC45CC5)nn12)OC(F)(F)O3 [Example 102, 2,2-difluoro-8-((7-(4-fluorophenyl)-4,7-diazaspiro[2.5]octan-4-yl)methyl)-[1,3]dioxolo[4,5-h][1,2,4]triazolo[1,5-c]quinazolin-5-amine] | 3.5 nM |
| Nc1nc2c3c(ccc2c2nc(CN4CCN(c5ccc(F)cn5)CC45CC5)nn12)OC(F)(F)O3 [Example 103, 2,2-difluoro-8-{[7-(5-fluoropyridin-2-yl)-4,7-diazaspiro[2.5]oct-4-yl]methyl}[1,3]dioxolo[4,5-h][1,2,4] triazolo[1,5-c]quinazolin-5-amine] | 3.4 nM |
| Nc1nc2c3c(ccc2c2nc(CN4CCN(c5cccc(F)c5)CC45CC5)nn12)OC(F)(F)O3 [Example 104, 2,2-difluoro-8-{[7-(3-fluorophenyl)-4,7-diazaspiro[2.5]oct-4-yl]methyl} [1,3]dioxolo[4,5-h][1,2,4]triazolo [1,5-c]quinazolin-5-amine] | 8.7 nM |

Other lines, results leading:

| Ki | SMILES |
| --- | --- |
| 7.1 nM | C[C@H](Cc1nc2c3ccc4c(c3nc(N)n2n1)OC(F)(F)O4)N1Cc2ccncc2C1 [Example 74, (R)-8-(2-(1H-pyrrolo[3,4-c]pyridin-2(3H)-yl)propyl)-2,2-difluoro-[1,3]dioxolo[4,5-h][1,2,4]triazolo[1,5-c]quinazolin-5-amine] |
| 3.9 nM | C[C@H](Cc1nc2c3ccc4c(c3nc(N)n2n1)OC(F)(F)O4)N1CCc2ccncc2C1 [Example 77, 8-[(2R)-2-(3,4-dihydro-2,7-naphthyridin-2(1H)-yl)propyl]-2,2-difluoro[1,3]dioxolo[4,5-h] [1,2,4]triazolo[1,5-c]quinazolin-5-amine] |
| 1.4 nM | C[C@H](Cc1nc2c3ccc4c(c3nc(N)n2n1)OC(F)(F)O4)N1CCc2cccnc2C1 [Example 78, 8-[(2R)-2-(5,8-dihydro-1,7-naphthyridin-7(6H)-yl)propyl]-2,2-difluoro[1,3]dioxolo[4,5-h] [1,2,4]triazolo[1,5-c]quinazolin-5-amine] |
| 1.3 nM | Cc1nc2c(o1)CN([C@H](C)Cc1nc3c4ccc5c(c4nc(N)n3n1)OC(F)(F)O5)CC2 [Example 79, 2,2-difluoro-8-[(2R)-2-(2-methyl-6,7-dihydro[1,3]oxazolo[5,4-c]pyridine-5(4H)-yl)propyl][1,3] dioxolo[4,5-h][1,2,4]triazolo[1,5-c] quinazolin-5-amine] |
| 2.6 nM | Cc1nc2c(s1)CN([C@H](C)Cc1nc3c4ccc5c(c4nc(N)n3n1)OC(F)(F)O5)CC2 [Example 80, 2,2-difluoro-8-[(2R)-2-(2-methyl-6,7-dihydro[1,3]thiazolo[5,4-c]pyridin-5(4H)-yl)propyl][1,3] dioxolo[4,5-h][1,2,4]triazolo [1,5-c]quinazolin-5-amine] |
| 1.5 nM | Cc1nc2c(s1)CCN([C@H](C)Cc1nc3c4ccc5c(c4nc(N)n3n1)OC(F)(F)O5)C2 [Example 82, 2,2-difluoro-8-[(2R)-2-(2-methyl-6,7-dihydro[1,3]thiazolo[4,5-c]pyridin-5(4H)-yl)propyl][1,3] dioxolo[4,5-h][1,2,4]triazolo [1,5-c]quinazolin-5-amine] |
| 3.8 nM | Cc1cc2n(n1)CCN([C@H](C)Cc1nc3c4ccc5c(c4nc(N)n3n1)OC(F)(F)O5)C2 [Example 83, 2,2-difluoro-8-[(2R)-2-(2-methyl-6,7-dihydropyrazolo[1,5-a]pyrazin-5(4H)-yl)propyl][1,3]dioxolo[4,5-h] [1,2,4]triazolo[1,5-c]quinazolin-5-amine] |
| 4.9 nM | C[C@H](Cc1nc2c3ccc4c(c3nc(N)n2n1)OC(F)(F)O4)N1CC(C)(F)C1 [Example 84, 2,2-difluoro-8-[(2R)-2-(3-fluoro-3-methylazetidin-1-yl)propyl][1,3] dioxolo[4,5-h][1,2,4]triazolo[1,5-c]quinazolin-5-amine] |
| 7.7 nM | C[C@@H](Cc1nc2c3ccc4c(c3nc(N)n2n1)OC(F)(F)O4)N1Cc2ccncc2C1 [Example 87, (S)-8-(2-(1H-pyrrolo[3,4-c]pyridin-2(3H)-yl)propyl)-2,2-difluoro-[1,3]dioxolo[4,5-h][1,2,4]triazolo[1,5-c]quinazolin-5-amine] |
| 4.8 nM | C[C@@H](Cc1nc2c3ccc4c(c3nc(N)n2n1)OC(F)(F)O4)N1CC(C)(F)C1 [Example 88, 2,2-difluoro-8-[(2S)-2-(3-fluoro-3-methylazetidin-1-yl)propyl][1,3] dioxolo[4,5-h][1,2,4]triazolo [1,5-c]quinazolin-5-amine] |
